According to patent US20160355530A1, “HEPATITIS C INHIBITORS AND USES THEREOF” (AbbVie Inc., priority 2010, published 2016):
Read-outs that look alike come from different tables or passages of the source.

Tests used:
[1] = target: T1, HCV NS5B polymerase 1a-H77 (Hepatitis C virus genotype 1a, UniProt P27958); assay: biochemical; parameters: species or system HCV genotype 1a; details: enzyme, strain 1a H77; read-out: HCV Polymerase Strain 1a H77 IC50
T1 construct: six-histidine tag; made in house; host or cells: E. coli
T1 sequence (P27958 2421-2990): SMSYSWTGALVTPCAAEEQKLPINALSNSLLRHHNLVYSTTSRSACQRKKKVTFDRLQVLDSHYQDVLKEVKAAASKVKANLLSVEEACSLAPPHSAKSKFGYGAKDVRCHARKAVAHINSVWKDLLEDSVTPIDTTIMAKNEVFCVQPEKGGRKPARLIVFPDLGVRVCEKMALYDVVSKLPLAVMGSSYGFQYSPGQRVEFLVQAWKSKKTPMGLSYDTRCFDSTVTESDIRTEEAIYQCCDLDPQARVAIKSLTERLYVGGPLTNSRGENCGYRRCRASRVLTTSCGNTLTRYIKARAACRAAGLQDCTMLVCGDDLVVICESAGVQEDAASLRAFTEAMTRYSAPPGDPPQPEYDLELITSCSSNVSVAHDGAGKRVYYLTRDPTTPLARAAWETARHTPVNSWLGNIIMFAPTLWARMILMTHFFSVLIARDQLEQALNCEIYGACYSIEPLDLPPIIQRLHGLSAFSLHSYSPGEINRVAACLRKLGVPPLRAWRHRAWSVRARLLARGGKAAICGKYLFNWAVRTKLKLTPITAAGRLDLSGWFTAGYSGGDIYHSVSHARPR
Method in brief: (§1)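 Incorporation of [3H]UTP (0.284 μM), alongside 20 μM each CTP and ATP, into RNA copied from a 5 nM 2.1 kb genotype 1b negative-strand template was measured after 3 h at 30° C using purified His-tagged NS5B truncated at residue 570. Product was spermine-precipitated, filtered and scintillation-counted; nonlinear regression gave IC50.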

[2] = target: T2, HCV NS5B polymerase 1a-H77-C316Y (Hepatitis C virus genotype 1a, UniProt P27958, C2736Y); assay: biochemical; parameters: species or system HCV genotype 1a
T2 construct: six-histidine tag; made in house; host or cells: E. coli
T2 sequence (P27958 2421-2990 C2736Y): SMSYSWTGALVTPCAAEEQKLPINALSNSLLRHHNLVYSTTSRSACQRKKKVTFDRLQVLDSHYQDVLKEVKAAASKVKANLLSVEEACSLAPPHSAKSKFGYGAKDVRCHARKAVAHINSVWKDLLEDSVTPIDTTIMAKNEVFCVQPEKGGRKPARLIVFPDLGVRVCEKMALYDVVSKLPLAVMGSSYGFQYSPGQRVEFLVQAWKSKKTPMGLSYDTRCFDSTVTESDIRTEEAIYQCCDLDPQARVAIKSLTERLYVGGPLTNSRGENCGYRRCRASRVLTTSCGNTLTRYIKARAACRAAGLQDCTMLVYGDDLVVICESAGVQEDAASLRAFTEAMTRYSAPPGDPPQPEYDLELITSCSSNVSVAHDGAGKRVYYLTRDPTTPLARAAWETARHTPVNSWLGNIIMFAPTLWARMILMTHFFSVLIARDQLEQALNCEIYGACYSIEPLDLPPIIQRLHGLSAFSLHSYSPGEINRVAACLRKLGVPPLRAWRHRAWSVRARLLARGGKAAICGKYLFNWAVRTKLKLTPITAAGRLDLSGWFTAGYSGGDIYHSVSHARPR
Method in brief: as §1

[3] = tested on: HCV NS5B polymerase 1a-H77-C316Y; assay: biochemical; parameters: species or system HCV genotype 1a; details: ratio of enzyme IC50s, 1a H77-C316Y / 1a H77
Method in brief: as §1

[4] = target: T3, HCV NS5B polymerase 1b BK strain (Hepatitis C virus genotype 1b, UniProt P26663); assay: HCV NS5B polymerase enzymatic inhibition assay, strain 1b BK; type: biochemical; details: enzyme, strain 1b BK; read-out: HCV Polymerase Strain 1b BK IC50
T3 construct: six-histidine tag; made in house; host or cells: E. coli
T3 sequence (P26663 2420-2989): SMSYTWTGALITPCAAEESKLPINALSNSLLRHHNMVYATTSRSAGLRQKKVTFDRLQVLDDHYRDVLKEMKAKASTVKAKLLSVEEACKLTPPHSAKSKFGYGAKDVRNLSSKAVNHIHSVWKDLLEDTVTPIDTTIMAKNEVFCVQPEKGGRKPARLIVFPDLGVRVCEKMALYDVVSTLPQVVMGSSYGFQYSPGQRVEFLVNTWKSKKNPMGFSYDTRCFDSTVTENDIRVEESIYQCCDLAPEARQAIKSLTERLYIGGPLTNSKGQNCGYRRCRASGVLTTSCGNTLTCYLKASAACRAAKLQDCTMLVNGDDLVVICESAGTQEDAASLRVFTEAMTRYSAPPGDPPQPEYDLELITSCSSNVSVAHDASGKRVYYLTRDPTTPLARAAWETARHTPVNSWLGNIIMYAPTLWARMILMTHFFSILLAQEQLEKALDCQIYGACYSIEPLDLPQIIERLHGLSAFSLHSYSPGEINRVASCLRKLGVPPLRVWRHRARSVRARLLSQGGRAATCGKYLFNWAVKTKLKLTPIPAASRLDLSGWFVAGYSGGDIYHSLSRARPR
Method in brief: as §1

[5] = tested on: HCV 1a-H77 subgenomic replicon; assay: microbe, parasite or virus in culture; type: cell-based, HCV genotype 1a; details: Hepatitis C virus, stable replicon
[6] = tested on: HCV 1b-BB7 subgenomic replicon; assay: microbe, parasite or virus in culture; type: cell-based, HCV genotype 1b; details: Hepatitis C virus, stable replicon
[7] = tested on: chimeric replicon with 2a-J6CF-derived NS5B; assay: microbe, parasite or virus in culture; type: cell-based, HCV genotype 2a; details: Hepatitis C virus, read-out: 2a chimera 5% FBS EC50
[8] = tested on: chimeric replicon with genotype 2b NS5B; assay: microbe, parasite or virus in culture; type: cell-based, HCV genotype 2b; details: Hepatitis C virus, read-out: 2b chimera 5% FBS EC50
[9] = tested on: chimeric replicon with genotype 3a NS5B; assay: microbe, parasite or virus in culture; type: cell-based, HCV genotype 3a; details: Hepatitis C virus, read-out: 3a chimera 5% FBS EC50
[10] = tested on: chimeric replicon with genotype 4a NS5B; assay: microbe, parasite or virus in culture; type: cell-based, HCV genotype 4a; details: Hepatitis C virus, read-out: 4a chimera 5% FBS EC50
[11] = 5% FBS, absence of human plasma, read-out: Stable Replicon 1a H77 5% FBS EC50
[12] = strain 1a H77, 5% FBS + 40% human plasma, read-out: 1a H77 5% FBS + 40% Human Plasma EC50
[13] = strain 1a H77, 5% FBS, no human plasma, read-out: 1a H77 5% FBS EC50
[14] = strain 1a H77, 5% FBS, read-out: 1a H77 5% FBS EC50
[15] = strain 1b BB7, 5% FBS + 40% human plasma, read-out: 1b BB7 5% FBS + 40% Human Plasma EC50
[16] = strain 1b BB7, 5% FBS, no human plasma, read-out: 1b BB7 5% FBS EC50
[17] = strain 1b BB7, 5% FBS, read-out: 1b BB7 5% FBS EC50

SMILES	IC50 [1] [nM]	IC50 [2] [nM]	C316Y/1a Fold Resistance [3] [fold]	IC50 [4] [nM]	EC50 [5, 11] [nM]	EC50 [5, 12] [nM]	EC50 [5, 13] [nM]	EC50 [5, 14] [nM]	EC50 [6, 15] [nM]	EC50 [6, 16] [nM]	EC50 [6, 17] [nM]	EC50 [7] [nM]	EC50 [8] [nM]	EC50 [9] [nM]	EC50 [10] [nM]
CS(=O)(=O)N(CCCN1CCOCC1)c1cc2oc(-c3ccc(F)cc3)c(-c3ncc[nH]3)c2cc1C1CC1 [Example 60, N-[5-cyclopropyl-2-(4-fluorophenyl)-3-(1H-imidazol-2-yl)-1-benzofuran-6-yl]-N-[3-(morpholin-4-yl)propyl]methanesulfonamide]	11.2	191	17	20	20	152	20	20	99.5	8.6	8.6	44.7	79.6	8.1	64.8
CS(=O)(=O)N(CCCS(=O)(=O)N1CCOCC1)c1cc2oc(-c3ccc(F)cc3)c(-c3ncc[nH]3)c2cc1C1CC1 [Example 79, N-[5-cyclopropyl-2-(4-fluorophenyl)-3-(1H-imidazol-2-yl)-1-benzofuran-6-yl]-N-[3-(morpholin-4-ylsulfonyl)propyl]methanesulfonamide]	5.5	141	26	20	14.7	117	14.7	14.7	62	6.9	6.9	90.6	99.3	11.6	72.8
CCCCN(c1cc2oc(-c3ccc(F)cc3)c(-c3ncc[nH]3)c2cc1C1CC1)S(C)(=O)=O [Example 39, N-butyl-N-[5-cyclopropyl-2-(4-fluorophenyl)-3-(1H-imidazol-2-yl)-1-benzofuran-6-yl]methanesulfonamide]	5	78	16	17	33.1	132	33.1	33.1	59	29.7	29.7	105	133	28.4	187
Cn1cnc2ccc(-c3ncc(CN(c4ccc5c(-c6ncc[nH]6)c(-c6ccccc6)oc5c4)S(C)(=O)=O)s3)cc21 [Example 30, N-[3-(1H-imidazol-2-yl)-2-phenyl-1-benzofuran-6-yl]-N-{[2-(1-methyl-1H-benzimidazol-6-yl)-1,3-thiazol-5-yl]methyl}methanesulfonamide]	5	19	4	12	108	10000	108	108	1320	4	4	40.7	109	2.8	150
CS(=O)(=O)N(CCCC(F)(F)F)c1cc2oc(-c3ccc(F)cc3)c(-c3ncc[nH]3)c2cc1C1CC1 [Example 44, N-[5-cyclopropyl-2-(4-fluorophenyl)-3-(1H-imidazol-2-yl)-1-benzofuran-6-yl]-N-(4,4,4-trifluorobutyl)methanesulfonamide]	5	105	21	19	23.7	420	23.7	23.7	81	16.1	16.1	93.7	97.7	15.1	176
CNC(=O)CCCN(c1cc2oc(-c3ccc(F)cc3)c(-c3ncc[nH]3)c2cc1C1CC1)S(C)(=O)=O [Example 107, 4-{[5-cyclopropyl-2-(4-fluorophenyl)-3-(1H-imidazol-2-yl)-1-benzofuran-6-yl](methylsulfonyl)amino}-N-methylbutanamide]	5.5	122	22	28	17.5	82	17.5	17.5	66	11	11	135	141	9.3	129
CS(=O)(=O)N(CCCc1noc(=S)[nH]1)c1cc2oc(-c3ccc(F)cc3)c(C3=NOCCN3)c2cc1C1CC1 [Example 183, N-[5-cyclopropyl-3-(5,6-dihydro-4H-1,2,4-oxadiazin-3-yl)-2-(4-fluorophenyl)-1-benzofuran-6-yl]-N-[3-(5-thioxo-4,5-dihydro-1,2,4-oxadiazol-3-yl)propyl]methanesulfonamide]	6	22	4	39	104	2060	104	104	2200	88	88	1000	1000	306	> 1000
CS(=O)(=O)NCCCN(c1cc2oc(-c3ccc(F)cc3)c(-c3ncc[nH]3)c2cc1C1CC1)S(C)(=O)=O [Example 95, N-[5-cyclopropyl-2-(4-fluorophenyl)-3-(1H-imidazol-2-yl)-1-benzofuran-6-yl]-N-{3-[(methylsulfonyl)amino]propyl}methanesulfonamide]	4.5	85	19	13	11.2	121	11.2	11.2	76.1	4.8	4.8	33.1	80.8	5.7	46.1
CS(=O)(=O)CCCN(c1cc2oc(-c3ccc(F)cc3)c(C3=NOCCN3)c2cc1C1CC1)S(C)(=O)=O [Example 140, N-[5-cyclopropyl-3-(5,6-dihydro-4H-1,2,4-oxadiazin-3-yl)-2-(4-fluorophenyl)-1-benzofuran-6-yl]-N-[3-(methylsulfonyl)propyl]methanesulfonamide]	5	38	8	42	14.5	122	14.5	14.5	150	11	11	274	211	44	189
CS(=O)(=O)N(CCCc1noc(=O)[nH]1)c1cc2oc(-c3ccc(F)cc3)c(C3=NOCCN3)c2cc1C1CC1 [Example 182, N-[5-cyclopropyl-3-(5,6-dihydro-4H-1,2,4-oxadiazin-3-yl)-2-(4-fluorophenyl)-1-benzofuran-6-yl]-N-[3-(5-oxo-4,5-dihydro-1,2,4-oxadiazol-3-yl)propyl]methanesulfonamide]	7	26	4	44	356	4230	356	356	5250	310	310	1000	1000	661	> 1000
